Test [1] concerns Mycosphaerella graminicola. The test is described as follows: Mycosphaerella graminicola (Septoria tritici)/liquid culture (Septoria blotch). The format is cell-based. Particulars: Zymoseptoria tritici, liquid culture, PDB, 24° C., growth inhibition photometric 4-5 days after application, read-out: control of Mycosphaerella graminicola compared to untreated control. On the procedure: (§1) Conidia of the fungus from cryogenic storage are directly mixed into nutrient broth (PDB potato dextrose broth). After placing a (DMSO) solution of test compound into a microtiter plate (96-well format), the nutrient broth containing the fungal spores is added. The test plates are incubated at 24° C. and the inhibition of growth is determined photometrically 4-5 days after application.

The subject of test [2] is Blumeria graminis f. sp. tritici. The experiment in a line: Blumeria graminis f. sp. tritici/wheat/leaf disc preventative (powdery mildew on wheat). The format is in vivo. The following applies: 200 ppm, wheat leaf segments cv. Kanzler, inoculated 1 day after application, assessed 6-8 days after application. On the procedure:
Wheat leaf segments cv. Kanzler are placed on agar in a multiwell plate (24-well format) and sprayed with the formulated test compound diluted in water. The leaf disks are inoculated by shaking powdery mildew infected plants above the test plates 1 day after application. The inoculated leaf disks are incubated at 20° C. and 60% rh under a light regime of 24 h darkness followed by 12 h light/12 h darkness in a climate chamber and the activity of a compound is assessed as percent disease control compared to untreated when an appropriate level of disease damage appears on untreated check leaf segments (6-8 days after application).

For another test, the system named is Mycosphaerella arachidis. The experiment in a line: Mycosphaerella arachidis (Cercospora arachidicola)/liquid culture (early leaf spot). The format is cell-based. Particulars: liquid culture, PDB, 24° C., growth inhibition photometric 4-5 days after application, read-out: control of Mycosphaerella arachidis compared to untreated control. On the procedure:
as §1

Another test concerns Alternaria solani. The test is described as follows: Alternaria solani/tomato/leaf disc (early blight). It is filed as in vivo. The following applies: 200 ppm; tomato leaf disks cv. Baby; inoculated 2 days after application; assessed 5-7 days after application. As for the experimental part: Tomato leaf disks cv. Baby are placed on agar in multiwell plates (24-well format) and sprayed with the formulated test compound diluted in water. The leaf disks are inoculated with a spore suspension of the fungus 2 days after application. The inoculated leaf disks are incubated at 23° C./21° C. (day/night) and 80% rh under a light regime of 12/12 h (light/dark) in a climate cabinet and the activity of a compound is assessed as percent disease control compared to untreated when an appropriate level of disease damage appears on untreated check disk leaf disks (5-7 days after application).

The next test deals with Pyrenophora teres. The test is described as follows: Pyrenophora teres/barley/leaf disc preventative (net blotch). It is filed as in vivo. Particulars: 200 ppm, barley leaf segments cv. Hasso, inoculated 2 days after application, assessed 5-7 days after application. As for the experimental part:
Barley leaf segments cv. Hasso are placed on agar in a multiwell plate (24-well format) and sprayed with the formulated test compound diluted in water. The leaf segments are inoculated with a spore suspension of the fungus 2 days after application. The inoculated leaf segments are incubated at 20° C. and 65% rh under a light regime of 12 h light/12 h darkness in a climate cabinet and the activity of a compound is assessed as disease control compared to untreated when an appropriate level of disease damage appears in untreated check leaf segments (5-7 days after application).

Another test deals with Glomerella lagenarium. The test is described as follows: Glomerella lagenarium (Colletotrichum lagenarium)/liquid culture (anthracnose). The format is cell-based. The following applies: Colletotrichum orbiculare, liquid culture, PDB, 24° C., growth inhibition photometric 3-4 days after application, read-out: control of Glomerella lagenarium compared to untreated control. On the procedure: Conidia of the fungus from cryogenic storage are directly mixed into nutrient broth (PDB potato dextrose broth). After placing a (DMSO) solution of test compound into a microtiter plate (96-well format), the nutrient broth containing the fungal spores is added. The test plates are incubated at 24° C. and the inhibition of growth is measured photometrically 3-4 days after application.

The test system of another test is Sclerotinia sclerotiorum. The test is described as follows: Sclerotinia sclerotiorum/liquid culture (cottony rot). The format is cell-based. Particulars: liquid culture (mycelia fragments), PDB, 24° C., growth inhibition photometric 3-4 days after application, read-out: control of Sclerotinia sclerotiorum compared to untreated control. On the procedure: Mycelia fragments of a newly grown liquid culture of the fungus are directly mixed into nutrient broth (PDB potato dextrose broth). After placing a (DMSO) solution of test compound into a microtiter plate (96-well format) the nutrient broth containing the fungal material is added. The test plates are incubated at 24° C. and the inhibition of growth is determined photometrically 3-4 days after application.

In the next test the test system is Botryotinia fuckeliana. The experiment in a line: Botryotinia fuckeliana (Botrytis cinerea)/liquid culture (gray mould). The format is cell-based. Particulars: liquid culture, Vogels broth, 24° C., growth inhibition photometric 3-4 days after application, read-out: control of Botryotinia fuckeliana compared to untreated control. On the procedure:
Conidia of the fungus from cryogenic storage are directly mixed into nutrient broth (Vogels broth). After placing a (DMSO) solution of test compound into a microtiter plate (96-well format), the nutrient broth containing the fungal spores is added. The test plates are incubated at 24° C. and the inhibition of growth is determined photometrically 3-4 days after application.

Another test deals with Fusarium culmorum. The test is described as follows: microbe, parasite or virus in culture. The format is cell-based. The following applies: read-out: control of Fusarium culmorum compared to untreated control. On the procedure:
Conidia of the fungus from cryogenic storage are directly mixed into nutrient broth (PDB potato dextrose broth). After placing a (DMSO) solution of test compound into a microtiter plate (96-well format), the nutrient broth containing the fungal spores is added. The test plates are incubated at 24° C. and the inhibition of growth is determined photometrically 3-4 days after application.

Another test relates to Monographella nivalis. The test is described as follows: Monographella nivalis (Microdochium nivale)/liquid culture (foot rot cereals). It is filed as cell-based. The following applies: liquid culture, PDB, 24° C., growth inhibition photometric 4-5 days after application, read-out: control of Monographella nivalis compared to untreated control. On the procedure:
as §1

For a further test, the system named is Phaeosphaeria nodorum. The experiment in a line: Phaeosphaeria nodorum (Septoria nodorum)/wheat/leaf disc preventative (glume blotch). It is filed as in vivo. The following applies: 200 ppm, wheat leaf segments cv. Kanzler, inoculated 2 days after application, assessed 5-7 days after application. As for the experimental part:
Wheat leaf segments cv. Kanzler are placed on agar in a multiwell plate (24-well format) and sprayed with the formulated test compound diluted in water. The leaf disks are inoculated with a spore suspension of the fungus 2 days after application. The inoculated test leaf disks are incubated at 20° C. and 75% rh under a light regime of 12 h light/12 h darkness in a climate cabinet and the activity of a compound is assessed as percent disease control compared to untreated when an appropriate level of disease damage appears in untreated check leaf disks (5-7 days after application).

A further test has as its system Gibberella zeae. The format is in vivo, Gibberella zeae (Fusarium graminearum). The following applies: 200 ppm; preventative; wheat spikelets cv. Monsun; inoculated one day after application; assessed 6-8 days after application.
Test [3] has as its system Puccinia recondita f. sp. tritici. The test is described as follows: Puccinia recondita f. sp. tritici/wheat/leaf disc curative (brown rust). The format is in vivo. Particulars: 200 ppm, applied 1 day after inoculation, wheat leaf segments cv. Kanzler, assessed 6-8 days after application. As for the experimental part:
Wheat leaf segments cv. Kanzler are placed on agar in multiwell plates (24-well format). The leaf segments are inoculated with a spore suspension of the fungus. Plates are stored in darkness at 19° C. and 75% rh. The formulated test compound diluted in water is applied 1 day after inoculation. The leaf segments are incubated at 19° C. and 75% rh under a light regime of 12 h light/12 h darkness in a climate cabinet and the activity of a compound is assessed as percent disease control compared to untreated when an appropriate level of disease damage appears in untreated check leaf segments (6-8 days after application).

For test [4] the test system is unchanged. The experiment in a line: Puccinia recondita f. sp. tritici/wheat/leaf disc preventative (brown rust). Particulars: 200 ppm, inoculated 1 day after application, wheat leaf segments cv. Kanzler, assessed 7-9 days after application. It is filed as in vivo. As for the experimental part: Wheat leaf segments cv. Kanzler are placed on agar in multiwell plates (24-well format) and sprayed with the formulated test compound diluted in water. The leaf disks are inoculated with a spore suspension of the fungus 1 day after application. The inoculated leaf segments are incubated at 19° C. and 75% rh under a light regime of 12 h light/12 h darkness in a climate cabinet and the activity of a compound is assessed as percent disease control compared to untreated when an appropriate level of disease damage appears in untreated check leaf segments (7-9 days after application).

A value given as a limit tells only on which side of the number the result lay.

Turning to `C[C@H]1c2ccccc2[C@@H](c2cnn(C)c2Cl)CN1C(=O)c1cn(-c2ccc(F)cc2F)nn1` [Compound P-48, [(1S,4S)-4-(5-chloro-1-methyl-pyrazol-4-yl)-1-methyl-3,4-dihydro-1H-isoquinolin-2-yl]-[1-(2,4-difluorophenyl)triazol-4-yl]methanone], the inhibition of growth at 20 ppm (in test [1]; in the test with Mycosphaerella arachidis; with Glomerella lagenarium; in the test on Sclerotinia sclerotiorum; with Botryotinia fuckeliana; with Fusarium culmorum) was not below 80% throughout. In addition, the inhibition of growth at 20 ppm with Monographella nivalis was not below 80%. In addition, the “control of Blumeria graminis f. sp. tritici compared to untreated control” value in test [2] is “at least 80%”. The “control of Alternaria solani compared to untreated control” value with Alternaria solani was “at least 80%”. In addition, the “control of Pyrenophora teres compared to untreated control” value in the test on Pyrenophora teres is “at least 80%”. For the same compound, in the test on Phaeosphaeria nodorum, the “control of Phaeosphaeria nodorum compared to untreated control” value was “at least 80%”.
On to `C[C@H]1c2ccccc2[C@@H](c2cnn(C)c2Cl)CN1C(=O)c1cn(-c2ncc(F)cc2F)nn1` [Compound P-54, [(1S,4S)-4-(5-chloro-1-methyl-pyrazol-4-yl)-1-methyl-3,4-dihydro-1H-isoquinolin-2-yl]-[1-(3,5-difluoro-2-pyridyl)triazol-4-yl]methanone], for which the inhibition of growth at 20 ppm (in [1]; in the test on Mycosphaerella arachidis; in the test with Glomerella lagenarium; with Botryotinia fuckeliana; in the test on Fusarium culmorum; in the test on Monographella nivalis) was not below 80% each time. Further, the “control of Blumeria graminis f. sp. tritici compared to untreated control” value in [2] was “at least 80%”. For the same compound, in the test on Gibberella zeae, the “control of Gibberella zeae compared to untreated control” value was “at least 80%”. Also, the “control of Alternaria solani compared to untreated control” value with Alternaria solani is recorded as “at least 80%”. Besides, the “control of Pyrenophora teres compared to untreated control” value with Pyrenophora teres is recorded as “at least 80%”. For the same compound, the “control of Phaeosphaeria nodorum compared to untreated control” value in the test on Phaeosphaeria nodorum is “at least 80%”.
`Cc1c([C@H]2CN(C(=O)c3nnn(-c4ccc(F)cc4F)n3)[C@@H](C)c3ccccc32)cnn1C` (racemic) [Compound P-42, [2-(2,4-difluorophenyl)tetrazol-5-yl]-[rac-(1S,4S)-4-(1,5-dimethylpyrazol-4-yl)-1-methyl-3,4-dihydro-1H-isoquinolin-2-yl]methanone]: the inhibition of growth at 20 ppm (in [1]; in the test on Mycosphaerella arachidis; in the test on Glomerella lagenarium; with Sclerotinia sclerotiorum; in the test with Botryotinia fuckeliana; in the test on Fusarium culmorum) was not below 80% in each case. For the same compound, the inhibition of growth at 20 ppm in the test with Monographella nivalis was not below 80%. For the same compound, the “control of Blumeria graminis f. sp. tritici compared to untreated control” value in [2] is given as “at least 80%”. For the same compound, the “control of Alternaria solani compared to untreated control” value with Alternaria solani is recorded as “at least 80%”. Besides, the “control of Pyrenophora teres compared to untreated control” value in the test on Pyrenophora teres was “at least 80%”. Also, the “control of Puccinia recondita f. sp. tritici compared to untreated control” value in [3] and in test [4] was “at least 80%” throughout. Moreover, the “control of Phaeosphaeria nodorum compared to untreated control” value with Phaeosphaeria nodorum is listed as “at least 80%”.

The values are drawn from patent US20260324639A1, “MICROBIOCIDAL PYRAZOLE DERIVATIVES” (SYNGENTA CROP PROTECTION AG, priority 2022, published 2026).
